Legend:
Assay in all cases: KINOMEscan competition binding
Conditions in all cases: compound 10.0 µM
[1] = test system: ABL1 (human), P00519 [E255K]
CDK4 CCND1 (human) = CDK4 CCND1 (human) (UniProt P11802+P24385)
CDK4 CCND3 (human) = CDK4 CCND3 (human) (UniProt P11802+P30281)
CRK2 (P.falciparum) = CRK2 (P.falciparum) (UniProt P61075)
CSNK1A1 (human) = CSNK1A1 (human) (UniProt P48729)
DYRK1A (human) = DYRK1A (human) (UniProt Q13627)
DYRK2 (human) = DYRK2 (human) (UniProt Q92630)
EGFR (human) = EGFR (human) (UniProt P00533)
[2] = test system: EGFR (human), P00533 [P753S; 747-752 del]
EIF2AK1 (human) = EIF2AK1 (human) (UniProt Q9BQI3)
ERBB3 (human) = ERBB3 (human) (UniProt P21860)
[3] = test system: FLT3 (human), P36888 [K663Q]
GRK1 (human) = GRK1 (human) (UniProt Q15835)
GRK4 (human) = GRK4 (human) (UniProt P32298)
HIPK3 (human) = HIPK3 (human) (UniProt Q9H422)
HIPK4 (human) = HIPK4 (human) (UniProt Q8NE63)
Chain of HIPK4 (human) (Q8NE63 whole entry, looked up): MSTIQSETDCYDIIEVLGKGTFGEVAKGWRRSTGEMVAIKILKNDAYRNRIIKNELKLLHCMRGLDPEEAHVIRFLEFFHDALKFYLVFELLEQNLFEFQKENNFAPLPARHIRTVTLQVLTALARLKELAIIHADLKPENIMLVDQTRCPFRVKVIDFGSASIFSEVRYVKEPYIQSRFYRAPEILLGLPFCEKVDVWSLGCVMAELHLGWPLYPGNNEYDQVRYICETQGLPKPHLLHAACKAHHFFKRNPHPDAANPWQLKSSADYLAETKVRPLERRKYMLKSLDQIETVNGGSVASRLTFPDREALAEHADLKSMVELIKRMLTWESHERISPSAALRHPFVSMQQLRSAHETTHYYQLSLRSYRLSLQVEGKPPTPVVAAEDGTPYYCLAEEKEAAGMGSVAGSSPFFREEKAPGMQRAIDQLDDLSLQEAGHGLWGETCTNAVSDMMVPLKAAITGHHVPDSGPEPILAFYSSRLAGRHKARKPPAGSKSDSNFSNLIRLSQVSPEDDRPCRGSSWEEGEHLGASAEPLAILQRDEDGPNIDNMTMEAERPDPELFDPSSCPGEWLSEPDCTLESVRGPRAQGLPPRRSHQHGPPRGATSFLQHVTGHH

ICK (human) = ICK (human) (UniProt Q9UPZ9)
IRAK1 (human) = IRAK1 (human) (UniProt P51617)
KIT (human) = KIT (human) (UniProt P10721)
LRRK2 (human) = LRRK2 (human) (UniProt Q5S007)
MAK (human) = MAK (human) (UniProt P20794)
Chain of MAK (human) (P20794 whole entry, looked up): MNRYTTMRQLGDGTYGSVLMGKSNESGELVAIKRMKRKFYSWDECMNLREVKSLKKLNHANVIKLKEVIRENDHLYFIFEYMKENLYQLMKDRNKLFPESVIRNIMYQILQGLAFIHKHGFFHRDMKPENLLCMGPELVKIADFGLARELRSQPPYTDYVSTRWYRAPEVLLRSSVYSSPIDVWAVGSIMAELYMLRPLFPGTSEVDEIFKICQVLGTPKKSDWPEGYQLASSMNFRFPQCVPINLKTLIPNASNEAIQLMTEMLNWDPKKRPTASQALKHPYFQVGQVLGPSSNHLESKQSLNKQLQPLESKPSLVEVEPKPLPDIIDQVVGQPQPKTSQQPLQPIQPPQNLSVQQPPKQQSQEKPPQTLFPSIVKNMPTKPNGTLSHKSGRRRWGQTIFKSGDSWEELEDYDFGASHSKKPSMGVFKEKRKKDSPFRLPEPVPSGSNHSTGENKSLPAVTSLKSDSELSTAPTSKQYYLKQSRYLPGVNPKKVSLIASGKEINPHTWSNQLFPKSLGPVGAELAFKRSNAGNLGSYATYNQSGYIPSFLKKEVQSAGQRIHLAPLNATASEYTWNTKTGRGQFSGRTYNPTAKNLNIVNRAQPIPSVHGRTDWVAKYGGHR

MAP2K7 (human) = MAP2K7 (human) (UniProt O14733)
MAP3K13 (human) = MAP3K13 (human) (UniProt O43283)
MAP3K2 (human) = MAP3K2 (human) (UniProt Q9Y2U5)
Chain of MAP3K2 (human) (Q9Y2U5 whole entry, looked up): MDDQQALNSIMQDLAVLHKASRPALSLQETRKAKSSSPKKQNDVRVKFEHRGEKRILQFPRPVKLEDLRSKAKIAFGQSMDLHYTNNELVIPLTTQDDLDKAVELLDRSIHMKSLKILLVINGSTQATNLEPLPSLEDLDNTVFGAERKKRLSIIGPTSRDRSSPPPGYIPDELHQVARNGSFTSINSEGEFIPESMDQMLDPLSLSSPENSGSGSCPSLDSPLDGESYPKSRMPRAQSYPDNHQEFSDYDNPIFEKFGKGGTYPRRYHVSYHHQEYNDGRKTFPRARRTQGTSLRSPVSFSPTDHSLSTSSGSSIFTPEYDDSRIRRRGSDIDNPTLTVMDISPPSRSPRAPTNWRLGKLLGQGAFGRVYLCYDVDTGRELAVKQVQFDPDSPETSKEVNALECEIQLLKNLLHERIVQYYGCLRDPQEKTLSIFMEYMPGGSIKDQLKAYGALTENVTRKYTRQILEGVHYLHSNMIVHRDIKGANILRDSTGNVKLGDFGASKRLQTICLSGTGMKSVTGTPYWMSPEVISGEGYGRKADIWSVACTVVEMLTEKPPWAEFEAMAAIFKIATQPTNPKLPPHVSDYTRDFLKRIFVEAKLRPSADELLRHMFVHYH

MAST1 (human) = MAST1 (human) (UniProt Q9Y2H9)
Chain of MAST1 (human) (Q9Y2H9 whole entry, looked up): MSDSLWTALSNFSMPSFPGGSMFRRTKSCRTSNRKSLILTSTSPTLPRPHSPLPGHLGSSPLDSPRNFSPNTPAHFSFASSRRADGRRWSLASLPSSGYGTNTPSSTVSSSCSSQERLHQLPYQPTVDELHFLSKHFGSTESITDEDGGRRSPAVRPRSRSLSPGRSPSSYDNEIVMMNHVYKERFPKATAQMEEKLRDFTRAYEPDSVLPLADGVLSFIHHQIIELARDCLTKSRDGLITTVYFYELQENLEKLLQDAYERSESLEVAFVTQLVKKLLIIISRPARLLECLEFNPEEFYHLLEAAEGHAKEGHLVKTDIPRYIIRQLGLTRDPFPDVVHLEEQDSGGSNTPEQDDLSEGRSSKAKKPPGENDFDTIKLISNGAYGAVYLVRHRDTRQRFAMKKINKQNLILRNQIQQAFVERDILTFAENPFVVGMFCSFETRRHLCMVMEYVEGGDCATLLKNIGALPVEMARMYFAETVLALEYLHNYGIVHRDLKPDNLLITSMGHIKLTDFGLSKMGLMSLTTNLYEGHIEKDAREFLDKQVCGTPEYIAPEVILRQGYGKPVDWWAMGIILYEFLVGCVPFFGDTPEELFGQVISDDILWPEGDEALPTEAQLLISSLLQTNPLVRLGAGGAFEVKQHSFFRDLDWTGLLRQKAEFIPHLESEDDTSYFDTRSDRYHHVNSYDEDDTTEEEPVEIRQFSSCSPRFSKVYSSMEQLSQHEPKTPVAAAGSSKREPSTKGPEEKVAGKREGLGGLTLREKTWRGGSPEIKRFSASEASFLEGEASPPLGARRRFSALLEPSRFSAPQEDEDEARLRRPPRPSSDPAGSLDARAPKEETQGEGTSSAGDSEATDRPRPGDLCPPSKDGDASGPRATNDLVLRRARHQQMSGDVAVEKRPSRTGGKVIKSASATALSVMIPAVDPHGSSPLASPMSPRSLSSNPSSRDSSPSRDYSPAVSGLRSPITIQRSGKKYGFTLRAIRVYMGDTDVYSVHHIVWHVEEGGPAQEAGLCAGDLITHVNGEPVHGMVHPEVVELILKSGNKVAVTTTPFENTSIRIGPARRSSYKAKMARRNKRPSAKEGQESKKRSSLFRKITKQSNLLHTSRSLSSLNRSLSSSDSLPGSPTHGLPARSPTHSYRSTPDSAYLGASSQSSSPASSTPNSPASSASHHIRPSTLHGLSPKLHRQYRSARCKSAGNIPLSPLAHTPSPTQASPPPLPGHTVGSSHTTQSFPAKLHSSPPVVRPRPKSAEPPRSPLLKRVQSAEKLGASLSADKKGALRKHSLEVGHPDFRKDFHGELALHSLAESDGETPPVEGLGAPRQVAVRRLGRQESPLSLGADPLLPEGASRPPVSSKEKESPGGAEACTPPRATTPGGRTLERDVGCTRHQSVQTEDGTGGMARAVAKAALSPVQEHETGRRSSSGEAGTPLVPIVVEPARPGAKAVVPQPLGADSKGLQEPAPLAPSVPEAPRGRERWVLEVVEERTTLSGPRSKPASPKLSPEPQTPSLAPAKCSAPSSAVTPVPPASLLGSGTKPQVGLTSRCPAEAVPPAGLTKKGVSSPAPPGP

MATK (human) = MATK (human) (UniProt P42679)
NEK11 (human) = NEK11 (human) (UniProt Q8NG66)
NEK3 (human) = NEK3 (human) (UniProt P51956)
Chain of NEK3 (human) (P51956 whole entry, looked up): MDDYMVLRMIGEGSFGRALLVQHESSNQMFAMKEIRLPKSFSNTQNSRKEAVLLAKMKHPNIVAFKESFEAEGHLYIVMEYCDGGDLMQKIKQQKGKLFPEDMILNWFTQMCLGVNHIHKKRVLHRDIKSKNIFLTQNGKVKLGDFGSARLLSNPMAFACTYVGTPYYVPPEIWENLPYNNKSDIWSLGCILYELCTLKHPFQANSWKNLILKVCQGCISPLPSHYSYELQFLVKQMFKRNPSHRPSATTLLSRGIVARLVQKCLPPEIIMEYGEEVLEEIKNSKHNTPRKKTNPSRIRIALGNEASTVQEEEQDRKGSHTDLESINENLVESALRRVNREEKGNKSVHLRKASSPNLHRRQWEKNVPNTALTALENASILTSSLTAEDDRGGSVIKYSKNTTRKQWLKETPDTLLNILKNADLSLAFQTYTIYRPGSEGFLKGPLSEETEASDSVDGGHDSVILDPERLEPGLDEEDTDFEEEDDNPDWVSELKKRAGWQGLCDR

NEK4 (human) = NEK4 (human) (UniProt P51957)
OXSR1 (human) = OXSR1 (human) (UniProt O95747)
PIK3C2G (human) = PIK3C2G (human) (UniProt O75747)
PKN3 (M.tuberculosis) = PKN3 (M.tuberculosis) (UniProt Q6P5Z2)
ROCK1 (human) = ROCK1 (human) (UniProt Q13464)
STK32A (human) = STK32A (human) (UniProt Q8WU08)
STK38 (human) = STK38 (human) (UniProt Q15208)
STK39 (human) = STK39 (human) (UniProt Q9UEW8)
TAOK2 (human) = TAOK2 (human) (UniProt Q9UL54)
TRPM6 (human) = TRPM6 (human) (UniProt Q9BX84)
YSK4 (human) = YSK4 (human) (UniProt Q56UN5)
PIK3CG (human) = PIK3CG (human) (UniProt P48736)

Chain of CDK4 CCND3 (human) (P11802 whole entry, looked up): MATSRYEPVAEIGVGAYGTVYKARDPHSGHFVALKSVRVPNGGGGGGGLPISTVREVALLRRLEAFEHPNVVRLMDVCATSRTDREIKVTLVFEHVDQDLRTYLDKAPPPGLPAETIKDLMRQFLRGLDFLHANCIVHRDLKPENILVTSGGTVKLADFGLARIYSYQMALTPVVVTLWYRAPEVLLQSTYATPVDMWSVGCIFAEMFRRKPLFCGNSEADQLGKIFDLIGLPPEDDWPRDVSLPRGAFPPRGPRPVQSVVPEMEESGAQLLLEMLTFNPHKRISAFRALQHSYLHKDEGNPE
Chain of CDK4 CCND3 (human) (P30281 whole entry, looked up): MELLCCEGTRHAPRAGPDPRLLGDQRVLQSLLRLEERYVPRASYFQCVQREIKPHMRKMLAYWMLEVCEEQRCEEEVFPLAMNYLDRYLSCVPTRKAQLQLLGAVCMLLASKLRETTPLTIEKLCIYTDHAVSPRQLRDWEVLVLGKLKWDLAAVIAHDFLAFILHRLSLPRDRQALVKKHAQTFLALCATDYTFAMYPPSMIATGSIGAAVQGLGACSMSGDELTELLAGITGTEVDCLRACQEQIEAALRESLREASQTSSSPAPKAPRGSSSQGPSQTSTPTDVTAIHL
Chain of CDK4 CCND1 (human) (P11802 whole entry, looked up): as the sequence (P11802 whole entry, looked up) above
Chain of CDK4 CCND1 (human) (P24385 whole entry, looked up): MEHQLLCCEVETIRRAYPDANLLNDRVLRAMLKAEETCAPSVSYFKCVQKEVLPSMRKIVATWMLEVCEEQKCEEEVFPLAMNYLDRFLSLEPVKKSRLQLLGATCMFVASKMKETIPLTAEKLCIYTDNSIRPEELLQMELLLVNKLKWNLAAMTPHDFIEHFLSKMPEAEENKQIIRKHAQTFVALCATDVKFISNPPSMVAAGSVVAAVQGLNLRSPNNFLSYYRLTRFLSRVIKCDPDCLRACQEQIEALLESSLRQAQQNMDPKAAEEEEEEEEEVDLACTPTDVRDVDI

Cc1cc([C@@H](C)Nc2ccccc2C(=O)O)c2nc(N3CCOCC3)cc(=O)n2c1
kinase still bound, per cent of control [1]: 94%
kinase still bound, per cent of control (CDK4 CCND1 (human)): 100%
kinase still bound, per cent of control (CDK4 CCND3 (human)): 100%
kinase still bound, per cent of control (CRK2 (P.falciparum)): 98%
kinase still bound, per cent of control (CSNK1A1 (human)): 63%
kinase still bound, per cent of control (DYRK1A (human)): 90%
kinase still bound, per cent of control (DYRK2 (human)): 89%
kinase still bound, per cent of control (EGFR (human)): 96%
kinase still bound, per cent of control [2]: 100%
kinase still bound, per cent of control (EIF2AK1 (human)): 97%
kinase still bound, per cent of control (ERBB3 (human)): 100%
kinase still bound, per cent of control [3]: 13%
kinase still bound, per cent of control (GRK1 (human)): 100%
kinase still bound, per cent of control (GRK4 (human)): 90%
kinase still bound, per cent of control (HIPK3 (human)): 89%
kinase still bound, per cent of control (HIPK4 (human)): 100%
kinase still bound, per cent of control (ICK (human)): 100%
kinase still bound, per cent of control (IRAK1 (human)): 90%
kinase still bound, per cent of control (KIT (human)): 91%
kinase still bound, per cent of control (LRRK2 (human)): 100%
kinase still bound, per cent of control (MAK (human)): 67%
kinase still bound, per cent of control (MAP2K7 (human)): 90%
kinase still bound, per cent of control (MAP3K13 (human)): 100%
kinase still bound, per cent of control (MAP3K2 (human)): 100%
kinase still bound, per cent of control (MAST1 (human)): 100%
kinase still bound, per cent of control (MATK (human)): 96%
kinase still bound, per cent of control (NEK11 (human)): 100%
kinase still bound, per cent of control (NEK3 (human)): 100%
kinase still bound, per cent of control (NEK4 (human)): 61%
kinase still bound, per cent of control (OXSR1 (human)): 100%
kinase still bound, per cent of control (PIK3C2G (human)): 7%
kinase still bound, per cent of control (PKN3 (M.tuberculosis)): 98%
kinase still bound, per cent of control (ROCK1 (human)): 73%
kinase still bound, per cent of control (STK32A (human)): 89%
kinase still bound, per cent of control (STK38 (human)): 100%
kinase still bound, per cent of control (STK39 (human)): 100%
kinase still bound, per cent of control (TAOK2 (human)): 94%
kinase still bound, per cent of control (TRPM6 (human)): 100%
kinase still bound, per cent of control (YSK4 (human)): 100%

Cc1ccc(NC(=O)c2cccc(C(C)(C)C#N)c2)cc1Nc1ccc2ncn(C)c(=O)c2c1
kinase still bound, per cent of control [1]: 3.4%
kinase still bound, per cent of control (CDK4 CCND1 (human)): 61%
kinase still bound, per cent of control (CDK4 CCND3 (human)): 90%
kinase still bound, per cent of control (CRK2 (P.falciparum)): 94%
kinase still bound, per cent of control (CSNK1A1 (human)): 100%
kinase still bound, per cent of control (DYRK1A (human)): 79%
kinase still bound, per cent of control (DYRK2 (human)): 100%
kinase still bound, per cent of control (EGFR (human)): 37%
kinase still bound, per cent of control [2]: 19%
kinase still bound, per cent of control (EIF2AK1 (human)): 84%
kinase still bound, per cent of control (ERBB3 (human)): 100%
kinase still bound, per cent of control [3]: 22%
kinase still bound, per cent of control (GRK1 (human)): 100%
kinase still bound, per cent of control (GRK4 (human)): 100%
kinase still bound, per cent of control (HIPK3 (human)): 86%
kinase still bound, per cent of control (HIPK4 (human)): 92%
kinase still bound, per cent of control (ICK (human)): 100%
kinase still bound, per cent of control (IRAK1 (human)): 75%
kinase still bound, per cent of control (KIT (human)): 0%
kinase still bound, per cent of control (LRRK2 (human)): 32%
kinase still bound, per cent of control (MAK (human)): 100%
kinase still bound, per cent of control (MAP2K7 (human)): 93%
kinase still bound, per cent of control (MAP3K13 (human)): 100%
kinase still bound, per cent of control (MAP3K2 (human)): 88%
kinase still bound, per cent of control (MAST1 (human)): 100%
kinase still bound, per cent of control (MATK (human)): 100%
kinase still bound, per cent of control (NEK11 (human)): 94%
kinase still bound, per cent of control (NEK3 (human)): 57%
kinase still bound, per cent of control (NEK4 (human)): 89%
kinase still bound, per cent of control (OXSR1 (human)): 96%
kinase still bound, per cent of control (PIK3C2G (human)): 88%
kinase still bound, per cent of control (PIK3CG (human)): 99%
kinase still bound, per cent of control (PKN3 (M.tuberculosis)): 100%
kinase still bound, per cent of control (ROCK1 (human)): 92%
kinase still bound, per cent of control (STK32A (human)): 100%
kinase still bound, per cent of control (STK38 (human)): 100%
kinase still bound, per cent of control (STK39 (human)): 100%
kinase still bound, per cent of control (TAOK2 (human)): 72%
kinase still bound, per cent of control (TRPM6 (human)): 100%
kinase still bound, per cent of control (YSK4 (human)): 0.85%

Reference: the kinase profiling compilation of Christmann-Franck et al. (2016)
